Data as given in patent US6563025B1, “Nucleotide sequences encoding anthranilate synthase” (Board of Trustees of the University of Illinois, priority 1996, dated 2003).
pKi: −log10 of the molar value. Values joined by “and” are separate entries in the source; they are usually repeats but may differ in a detail not shown here. Identical values can stand only once. “Also recorded” adds a separate entry of the source. Like-named read-outs stand apart in the source and are kept apart here.

Assays:
tobacco ASA2 [1] = assay: Feedback inhibition assay of tobacco ASA2 expressed in E. coli; type: biochemical, N. tabacum; settings: partially purified ASA2 expressed in E. coli
Protocol: The tobacco ASA2 gene was expressed in E. coli strain trpE5972, a mutant line containing a nonsense trpE gene, grown to late log phase on Luria Bertani medium with 100 μM Trp. Expression was induced by addition of 100 μM isopropylthiogalactoside. A protease inhibitor, 135 μM phenylmethylsulfonylfluoride (PMSF), was added with further incubation for three hours at 30° C., 150 rpm. The cells were collected by centrifugation and resuspended in 50 mM Tris, 5 mM MgCl2, 100 mM NH4Cl, 2 mM dithiothreitol, 20% glycerol, pH 8.0 plus 100 μM PMSF and disrupted using a French press (2 passes, 20,000 psi). Cell debris was removed by centrifugation and the supernatant treated with Ni-affinity resin. Bound protein was eluted with 100 μM imidazole in pH 6.3 buffer.

Arabidopsis ASA1 = target: T1, Arabidopsis ASA1 (Arabidopsis thaliana, UniProt P32068); assay: Feedback inhibition assay of Arabidopsis ASA1 expressed in E. coli; type: biochemical, A. thaliana; settings: 100 μM and lower concentrations of Trp; crude E. coli cell extract
T1 construct: made in house; host or cells: E. coli JM109
T1 sequence (P32068 55-595): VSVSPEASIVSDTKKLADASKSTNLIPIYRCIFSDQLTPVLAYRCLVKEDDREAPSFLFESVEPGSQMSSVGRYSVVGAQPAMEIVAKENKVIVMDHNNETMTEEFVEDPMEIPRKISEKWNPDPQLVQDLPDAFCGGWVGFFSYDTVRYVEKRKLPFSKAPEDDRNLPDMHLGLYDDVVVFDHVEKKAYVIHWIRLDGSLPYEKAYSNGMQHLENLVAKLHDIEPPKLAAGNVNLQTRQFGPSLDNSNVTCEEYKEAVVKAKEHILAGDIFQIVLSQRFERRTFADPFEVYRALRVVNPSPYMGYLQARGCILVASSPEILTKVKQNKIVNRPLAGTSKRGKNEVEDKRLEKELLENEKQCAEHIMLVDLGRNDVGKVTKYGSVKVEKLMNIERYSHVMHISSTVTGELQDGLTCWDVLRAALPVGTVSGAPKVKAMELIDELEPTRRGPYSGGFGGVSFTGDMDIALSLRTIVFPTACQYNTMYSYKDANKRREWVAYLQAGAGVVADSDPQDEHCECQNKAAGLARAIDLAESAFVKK
Protocol: The tobacco ASA2 gene was expressed in E. coli strain trpE5972, a mutant line containing a nonsense trpE gene, grown to late log phase on Luria Bertani medium with 100 μM Trp. Expression was induced by addition of 100 μM isopropylthiogalactoside. A protease inhibitor, 135 μM phenylmethylsulfonylfluoride (PMSF), was added with further incubation for three hours at 30° C., 150 rpm. The cells were collected by centrifugation and resuspended in 50 mM Tris, 5 mM MgCl2, 100 mM NH4Cl, 2 mM dithiothreitol, 20% glycerol, pH 8.0 plus 100 μM PMSF and disrupted using a French press (2 passes, 20,000 psi). Cell debris was removed by centrifugation and the supernatant treated with Ni-affinity resin. Bound protein was eluted with […] imidazole in pH 6.3 buffer. The Arabidopsis ASA1 gene was similarly expressed except that the E. coli strain JM109 was used and enzyme activity in a crude cell extract without Ni-affinity purification was characterized.
Enzyme activity was measured with and without Trp in 50 mM Tris, 5 mM M?gCl2, 1 mM EDTA, 100 mM NH4Cl, 2 mM dithiothreitol, 20% glycerol, pH 7.8 plus 100 μM chorismate. Anthranilate produced in; 30 min at 30° C. was extracted using ethyl acetate and fluorescence measured at excitation 340 and emission 400.

anthranilate synthase = assay: AS activity in extracts of A. sinicus hairy root lines, inhibition by Trp; type: biochemical; settings: control lines; Trp concentration causing 50% inhibition; NH4Cl as second substrate; read-out: apparent Ki for Trp
Protocol: Extracts were prepared using a Tenbroeck tissue grinder (Kontes Glass Co., Vineland, N.J.), and the ASA1 extraction buffer (2 ml/g tissue) described by Bernasconi and coworkers (Bernasconi, P., et al., Plant Physiol., 106: 353-358, 1994). After removal of cellular debris by centrifugation (10 min at 35,000 × g and 4° C.), one volume of the supernatant was combined with two volumes of room temperature saturated (NH4)2SO4, and then centrifuged as before. The resulting pellet was resuspended in extraction buffer (1 ml/g tissue) and used immediately. When glutamine was used as the second substrate for the AS catalyzed reaction, the resuspended enzyme solution was desalted using Sephadex G25 to remove residual (NH4)2SO4.
AS activity was measured as described in Song et al. (1998, supra) except the assay buffer was that described by Bernasconi et al. (1994, supra) without NH4Cl in the buffer. Either 100 mM NH4Cl or 10 mM glutamine was added to the assay mixture to determine α-subunit activity or AS holoenzyme activity, respectively.

AS [2] = assay: AS activity in extracts of tobacco suspension cultured cells, inhibition by Trp; type: biochemical, N. tabacum; settings: 100 μM Trp; original 5MT-resistant cell lines
tobacco ASA2 [3] = settings: ASA2 expressed in E. coli; read-out: apparent Ki for Trp; cited from earlier work
AS [4] = settings: cited from earlier work; for pKi: read-out: apparent Ki for Trp
altered AS = altered AS (Arabidopsis thaliana, UniProt P32068, D341N); settings: 100 μM Trp; cited from earlier work
E. coli trpE5972 = assay: Complementation and inhibition tests in trpE mutant E. coli; type: cell-based; settings: no Trp
Protocol: The pQES61K was transformed into a trpE nonsense (trpE 5972) mutant E. coli. The trpE nonsense mutant E. coli (trpE 5972) transformed with an expression vector itself (Vector) and the ASA2 cDNA ligated into the expression vector (ASA2) were plated on the M9 minimal medium containing, isopropyl-thiogalactoside (IPTG, 0.1 mM) and ampicillin (100 μg/ml) and either with Trp (+Trp, FIG. 5A) or without Trp (−Trp, FIG. 5B). The complemented strain grew well on M9 medium without Trp and also with 300 μM 5MT (FIG. 5C) which inhibits the growth of the complemented strain carrying feedback-sensitive plant AS (Bohlmann et al., Plant Physiol., 111: 507-514, 1996).
The chimeric constructs were transformed into trpE mutant E. coli (trpE5972, nonsense mutant) using CaCl2 transformation (Sambrook et al., 1989, supra). Complemented strains were plated on M9 minimal medium containing ampicillin (100 μg/ml) and isopropylthiogalactoside (IPTG, 0.1 mM), but no Trp. For the inhibition test, 300 μM 5MT was added to the minimal medium described previously. FIGS. 16A and 16B were taken two days after streaking.

[5] = test system: A. sinicus hairy root lines; assay: Quantitative root growth test of A. sinicus hairy root lines with 5MT; type: cell-based
Protocol: Hairy roots were weighed to determine fresh weight, and these samples were dried for 12 h at […] before dry weight determination.
Since expression of the feedback-insensitive ASA2 gene should increase resistance to the Trp analog 5MT as shown previously with E. coli (Song et al., 1998), a quantitative root growth test was used to assess the extent of 5MT resistance of the transformed hairy root lines. Transformed roots were grown for 6 weeks with 0, 10, 15, 20, 25, 30, 40, 50, 75 and 100 μM 5MT in both MS liquid and solid medium, respectively (FIGS. 18A to 18C and FIGS. 19A and 19B).

A. sinicus seedlings = assay: Direct selection of hairy root lines from A. sinicus seedlings; type: cell-based
Protocol: Four to seven day old seedlings of A. sinicus with roots removed were then fully immersed in the 1 day cultured bacterial suspension in a petri dish for 10 min, wiped with sterilized filter paper and then placed on partially water immersed filter paper and incubated under 16 h light ([…] m-2 s-1, cool white fluorescent lamps). Three days after co-cultivation, plants were transferred to Murashige and Skoog (Murashige, T., & Skoog, F. Physiol. Plant. 15:473-497, 1962), MS, medium solidified with 3g/l Gellan Gum containing 500 mg/l of carbenicillin disodium and 75 mg/l kanamycin.
Since the A. sinicus hairy root lines initially selected for kanamycin-resistance but which were also transformed with the feedback-insensitive ASA2 cDNA show resistance to growth inhibition by 5MT (FIG. 18), we wanted to determine if direct selection could be done for A. sinicus hairy root line formation on medium containing 5MT (FIGS. 21A and 21B). Transformation of A. sinicus seedlings with DC-AR2 harboring pBIN-ASA2 gave rise to hairy root line formation on medium containing 0, 15, 20, 25, 30 and 40 μM 5MT but inhibition occurred at 50, 75 and 100 μM.

soybean hairy root lines = assay: Quantitative root growth test of soybean hairy root lines with 5MT; type: cell-based; settings: solid medium, 8 weeks; compared with A. sinicus
Protocol: The soybean (cv. Williams 82) cotyledons from 4 to 6-day-old-seedlings were harvested and wounded with a scalpel previously-dipped into an overnight culture of the A. rhizogenes strain K599. Cotyledons were inoculated by cutting the adaxial face several times to form a checked wound site and the abaxial side was placed on sterile distilled water partially immersed filter paper and incubated as described above. Three days after inoculation, cotyledons were transferred to medium containing Murashige and Skoog basal minerals and B5 organics (Gamborg, O. L., et al. Expt. Cell. Res. 50: 148-151, 1968) solidified with 3 g/1 Gellan gum (Kelko, Division of Merck) (MXB medium) in 100×25 mm petri dishes. To inhibit the growth of bacteria and to select transformed roots, 500 mg/l of carbenicillin disodium and 200 mg/l kanamycin were added to the MXB medium. After hairy roots developed from wounded cotyledons,. single root tips (2-3 cm) were excised and used to establish bacteria-free root clones by subculture to fresh MXB solid medium grown at 28° C. in the dark. […]
Large numbers of kanamycin resistant root lines were produced from soybean cotyledons transformed with pBIN-ASA2 and a quantitative root growth test was also performed to assess the extent of 5MT resistance of the transformed hairy root lines. […]

[6] = control hairy root lines, 6 weeks
[7] = seedlings transformed with DC-AR2 harboring pBIN-ASA2

Chain of altered AS (P32068 55-595 D341N): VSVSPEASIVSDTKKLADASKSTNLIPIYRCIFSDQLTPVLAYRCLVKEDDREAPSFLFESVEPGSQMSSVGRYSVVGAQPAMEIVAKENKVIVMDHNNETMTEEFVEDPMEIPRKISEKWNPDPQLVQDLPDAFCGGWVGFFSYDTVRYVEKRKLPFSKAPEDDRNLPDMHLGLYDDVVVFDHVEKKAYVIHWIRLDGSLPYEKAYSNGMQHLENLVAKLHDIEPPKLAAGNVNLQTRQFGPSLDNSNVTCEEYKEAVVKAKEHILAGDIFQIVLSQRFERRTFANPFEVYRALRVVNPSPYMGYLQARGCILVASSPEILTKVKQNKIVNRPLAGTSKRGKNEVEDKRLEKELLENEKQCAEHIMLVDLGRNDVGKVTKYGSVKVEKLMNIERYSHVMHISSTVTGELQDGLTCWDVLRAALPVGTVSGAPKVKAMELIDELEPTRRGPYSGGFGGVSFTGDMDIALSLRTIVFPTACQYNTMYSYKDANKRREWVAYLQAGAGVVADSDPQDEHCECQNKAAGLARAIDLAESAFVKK

Question: For `N[C@@H](Cc1c[nH]c2ccccc12)C(=O)O` [Trp, tryptophan], which “AS activity remaining at 100 μM Trp” value (tobacco ASA2 [1]) is on record?
Answer: 50%

Question: And the “Inhibition of Arabidopsis ASA1 gene product by Trp” value (Arabidopsis ASA1)?
Answer: completely inhibited

Question: And the pKi (anthranilate synthase)?
Answer: 5.70 and 5.52

Question: What about the “enzyme activity of the feedback-insensitive ASA2” value (AS [2]) of the same compound?
Answer: 50%

Question: What about the pKi (tobacco ASA2 [3]) of the same compound?
Answer: 4.00

Question: And the AS activity remaining (AS [4]; 900 μM Trp, 5MT-selected tobacco cells overexpressing ASA2, also AB15-12-1)?
Answer: 20%

Question: And the pKi (AS [4]; extracts of 5MT-resistant tobacco suspension cultured cells)?
Answer: 3.52

Question: What about the pKi (AS [4]; extracts of wild-type tobacco suspension cultured cells) of the same compound?
Answer: 5.70

Question: What about the “AS inhibition by Trp” value (altered AS) of the same compound?
Answer: 95%

Question: Which results are given for `Cc1ccc2[nH]cc(C[C@H](N)C(=O)O)c2c1` [5MT, 5-methyltryptophan]?
Answer: Growth on minimal medium with 5MT (E. coli trpE5972; site-directed mutagenized ASA2 alone, 10 μM 5MT): could not grow; Growth on minimal medium with 5MT (E. coli trpE5972; strain transformed with ASA2 cDNA, 300 μM 5MT): grew well; also recorded: not inhibited; Growth on minimal medium with 5MT (E. coli trpE5972; strain transformed with site-directed mutant (Ser107, Gln108), 300 μM 5MT): did not grow; 5MT concentration inhibiting hairy root growth [5, 6]: 10 to 20 µM; 5MT concentration of almost complete inhibition [5, 6]: ≥ 30 µM; 5MT concentration at which lines turned brown and died ([5]; control hairy root lines, liquid medium): ≥ 20 µM; 5MT concentration at which lines grew ([5]; transformed lines A-7, 8, 9, 10 and 20, liquid medium): up to 100 μM; 5MT concentration at which lines are able to grow ([5]; transformed lines A-7, 8, 9, 10 and 20, maximum concentration tested): up to 100 μM; 5MT concentration for effective direct selection of 35S-ASA2 transformed roots (A. sinicus seedlings): 15 to 40 µM; 5MT concentration at which roots turned brown and died (A. sinicus seedlings; control roots, DC-AR2, subculture): ≥ 15 µM; 5MT concentration at which no hairy root lines were formed (A. sinicus seedlings; control, transformed with DC-AR2): ≥ 25 µM; 5MT concentration allowing hairy root line formation (A. sinicus seedlings; [7]): ≤ 40 µM; 5MT concentration at which inhibition of hairy root formation occurred (A. sinicus seedlings; [7]): ≥ 50 µM; Sensitivity of hairy root lines to 5MT inhibition (soybean hairy root lines): more sensitive to 5MT inhibition than those of A. sinicus
